Common to all, as to assay: In vitro percent disease control (radii of spore growth on agar)
What all share (type): cell-based

Data set [1] deals with Pyricalaria oryzae. The note with it: for inhibition of growth at 50 ppm: read-out: % controlled, Py. or., 50 ppm; for inhibition of growth at 100 ppm: read-out: % controlled, Py. or., 100 ppm. The method in brief:
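Compounds at 100 ppm and 50 ppm (10% acetone in water) mixed into potato-sucrose-agar, P. oryzae spotted centrally and incubated several days. Percent disease control derived from radii of spore growth.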

Data set [2] relates to Botryosphaeria dothidea Macrophoma sp. The note with it: Botryosphaeria dothidea, read-out: % controlled, Bo.do (Ma.). The method in brief:
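Compounds (100 and 50 ppm, 10% acetone in water) were mixed into potato-sucrose-agar and the fungus was spotted centrally, then incubated several days in a growth room. Percent disease control came from radii of spore growth.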

Data set [3] deals with Glomerella cingulata. The note with it: Colletotrichum gloeosporioides, read-out: % controlled, Glo. The method in brief:
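Compounds were dissolved in acetone (10% of final volume) plus water at 100 ppm and 50 ppm and mixed into potato-sucrose agar. G. cingulata was spotted centrally and incubated for several days in a growth room. Percent disease control was derived from the radii of spore growth.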

Data set [4] deals with Fusarium moniliforme. Summed up: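 Compounds in 10% acetone/water at 100 and 50 ppm were mixed into potato-sucrose-agar, with Fusarium moniliforme spotted centrally. After several days' incubation, percent disease control was derived from radii of spore growth.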
The subject of data set [5] is Physalospora baccae. The note with it: read-out: % controlled, Phy ba. The method in brief:
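Compounds at 100 and 50 ppm (10% acetone) mixed into potato-sucrose-agar, fungus spotted centrally and grown several days in a growth room. Percent disease control derived from radii of spore growth.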

Data set [6] deals with Rhizoctonia solani. The note with it: Rhizoctonia solani, read-out: % controlled, Rhy. so. Summed up: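 Test compounds at 100 ppm and 50 ppm (acetone 10% of final volume, then water) were mixed into potato-sucrose-agar, and the fungus was spotted at the dish centre. Dishes were incubated several days in a growth room. Percent disease control was derived from the radii of spore growth.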

The test system of data set [7] is Phytophthora capsisi. The note with it: Phytophthora, read-out: % controlled, Phy ca. The method in brief: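 Compounds dissolved in acetone (10% of final volume) then water at 100 ppm and 50 ppm, mixed into potato-sucrose-agar; fungus spotted at plate centre and incubated several days. Percent disease control derived from radii of spore growth.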
Data set [8] concerns Botry tris cinerea. The note with it: read-out: % controlled, Bo ci. The method in brief: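 Compounds at 100 and 50 ppm (acetone 10% of final volume, rest water) mixed into potato-sucrose agar; Botrytis cinerea spotted at dish centre. After several days' incubation, percent disease control calculated from radii of spore growth.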
Data set [9] has as its system Alternaria mali. The note with it: Alternaria mali, read-out: % controlled, Al. Summed up: (§1)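 Compounds in acetone (10% of final volume) diluted with water to 100 and 50 ppm, then mixed into potato-sucrose-agar with each fungus spotted centrally. Incubated several days in a growth room; percent disease control derived from radii of spore growth.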
The test system of data set [10] is Rhizopus sp. The settings on record: Rhizopus, read-out: % controlled, Rhi. sp. Summed up: as §1

The results in this text go back to patent US5235061A, “Fungicidal (1H-1,2,4-triazolyl)disilaalkanes” (priority 1991, dated 1993).

Structures are written as SMILES.

`C[Si](C)(C[Si](Cn1cncn1)(c1ccc(F)cc1)c1ccc(F)cc1)c1ccc(-c2ccccc2)cc1` [2,2-bis(4-fluorophenyl)-4-(4-phenylphenyl)-4-methyl-2,4-disila-1-(1H-1,2,4-triazol-1-yl)pentane]: the inhibition of growth at 50 ppm was determined as 54% in data set [1]; 47% in data set [2]; 71% in [3]; 28% in [5]; 65% in [6]; 6% in [7]. For the same molecule, the inhibition of growth at 50 ppm stood at 18% in data set [8], 46% in [9] and 29% in data set [10]. Besides, the inhibition of growth at 100 ppm turned out to be 57% in [1]; 49% in data set [2]; 73% in data set [3]; 32% in data set [5]; 67% in [6]; 9% in [7]. Also, the inhibition of growth at 100 ppm in data set [8] was found to be 23%; in data set [9] it was 46%; in data set [10], 29%. Besides, the “% controlled, Fu. mo.” value in data set [4] (50 ppm) and in data set [4] (100 ppm) was 41% throughout.
On to `C[Si](C)(C)C[Si](Cn1cncn1)(c1ccc(Cl)cc1)c1ccc(Cl)cc1` [2,2-bis(4-chlorophenyl)-4,4-dimethyl-2,4-disila-1-(1H-1,2,4-triazol-1-yl)pentane], for which the inhibition of growth at 50 ppm in data set [1] is 90%; in data set [2] it was 70%; in data set [3] it was 83%; in [5], 90%; in [6] it was 56%; in data set [7] it was 28%. In addition, the inhibition of growth at 50 ppm was 67% in [8], 75% in data set [9] and 51% in [10]. For the same molecule, the inhibition of growth at 100 ppm is 95% in data set [1]; 72% in [2]; 89% in data set [3]; 100% in [5]; 66% in data set [6]; 34% in [7]. Moreover, the inhibition of growth at 100 ppm was found to be 85% in [8], 79% in data set [9] and 54% in [10]. Further, the “% controlled, Fu. mo.” value in data set [4] (50 ppm) is reported as 46%; in data set [4] (100 ppm), 65%.
As to `C[Si](C)(C[Si](Cn1cncn1)(c1ccc(Cl)cc1)c1ccc(Cl)cc1)c1ccc(F)cc1` [2,2-bis(4-chlorophenyl)-4-(4-fluorophenyl)-4-methyl-2,4-disila-1-(1H-1,2,4-triazol-1-yl)pentane], the inhibition of growth at 50 ppm in [1] was 57%; in data set [2], 54%; in [3], 0%; in [5], 44%; in [6] it was 43%; in [7], 6%. Further, the inhibition of growth at 50 ppm is 37% in data set [8], 51% in data set [9] and 26% in [10]. For the same molecule, the inhibition of growth at 100 ppm in data set [1] turned out to be 57%; in data set [2], 61%; in data set [3], 0%; in data set [5], 48%; in data set [6] it was 77%; in data set [7] it was 9%. Moreover, the inhibition of growth at 100 ppm in data set [8] was determined as 53%; in [9] it was 58%; in data set [10], 32%. In addition, the “% controlled, Fu. mo.” value was found to be 41% in [4] (50 ppm) and 55% in data set [4] (100 ppm).
